According to patent US20200276181A1, “THIENOISOQUINOLINES AND THEIR DERIVATIVES FOR TARGETING TUBULIN, CH-TOG, AURORA A KINASE, TPX2, CDK5RAP2 AND/OR ASPM” (VALORBEC, SEC, priority 2017, published 2020):

Key:
[1] = tested on: HFF1 (non-cancer) cells; assay: Percentage of mitotic cells, nocodazole +/- C75; assay type: cell-based; settings: 200 nM C75 + 33 or 66 nM nocodazole
Procedure: FIG. 3A) is a line graph showing cytotoxicity of HeLa cells after treatment with varying concentrations of C75+/−a subthreshold dose of paclitaxel (Taxol™; 3 nM). The IC50 is shown by the dotted line. Bars show standard deviation. […] The bars indicate standard deviation. FIG. 3C) is a series of bar graphs showing the proportion of HCT 116 cells with bipolar aligned (grey), bipolar misaligned (dark grey), multipolar/fragmented (light grey, top portion of each bar) or monopolar (black) spindles 7 hours after treatment with control (DMSO), varying concentrations of paclitaxel or C75, or both as indicated (n=691; N=3). The bars show standard deviation. The combination treatments were compared to paclitaxel and C75 on their own by calculating ratios varying from the predicted ratio, and found to synergize at 100 and 200 nM. FIG. 3D) is bar graph showing the average distance between centrosome fragments in HCT116 cells after treatments as shown. While centrosome fragments moved closer together with increased concentrations of paclitaxel, they moved further apart with increased concentrations of C75 (n=105; N=3). […] FIG. 3F) is a line graph showing the percentage of mitotic HeLa or HFF1 cells treated with a range of nocodazole concentrations+/−C75 as indicated. The bars indicate standard deviation. […]

[2] = tested on: A549 spheroids; assay: Multicellular tumour spheroids; assay type: cell-based, human
Procedure: (§1) FIGS. 5A, 5B, 5C, 5D, 5E, 5F, 5G, 5H, 5I, 5J, 5K, 5L and 5M show how C75 disrupts or reduces the growth of HeLa, HCT116 and A549 spheroids. FIG. 5A) images show HeLa spheroids over time (3 days) before and after treatment with control (1 μM C87; n=10), 250 nM (n=6) or 500 nM (n=10) of C75. The scale bar is 100 μm. FIG. 5B) is a series images of HeLa spheroids after three days of treatment with control (500 nM C87) or 500 nM C75. The spheroids were stained for fluorescein diacetate (to detect live cells) and propidium iodide (to detect dead cells). […] The scale bar is 100 μm. FIG. 5C) is a line graph showing the change in spheroid area (μm^2) for each day and treatment as indicated. Bars show standard deviation and the asterisks are p<0.05 as determined by the student's t test. FIG. 5D) images show HeLa spheroids over 3 days before and after treatment with empty nanoparticles (control; n=3) or 250 nM of nanoparticle-encapsulated C75 (n=3). The scale bar is 100 μm. […] Bars show standard deviation and the asterisks are p<0.05 as determined by the student's t test. FIG. 5F) is a series of images of HCT116 spheroids treated with control (1 μM C87; n=10), 500 nM C75 (n=10) and 1 μM C75 (n=10). […] Bars show standard deviation and the asterisks are p<0.05 as determined by the student's t test. […] Bars show standard deviation and the asterisks are p<0.05 as determined by the student's t test. […]

[3] = tested on: HeLa spheroids; assay: Multicellular tumour spheroids; assay type: cell-based, human
Procedure: as §1

[4] = tested on: HeLa cells with lower levels of endogenous ch-TOG (ch-TOG RNAi); assay: Spindle phenotypes with ch-TOG RNAi; assay type: cell-based, human; settings: 200 nM C75 or 20 nM colchicine
Source text: FIG. 7B) is a bar graph showing the proportion of phenotypes of the HeLa cells observed in the different conditions listed in 7A) (bipolar spindles in light grey; bipolar spindles with misaligned chromosomes in dark grey; multipolar/fragmented spindles in hatched lines; monopolar spindles in black).

COc1ccc(S(=O)(=O)N2Cc3ccccc3-c3sc(Br)cc32)cc1 [Compound C75]
change in proportion of mitotic cells [1]: no change
effect on spheroids [2]: regress the growth
effect on spheroids [3]: disrupt
interaction with ch-TOG RNAi, fragmented spindle phenotype [4]: additive effect
